Assays:
[1] = in vivo; parameters: species or system SPF Wistar rats; settings: rat, in vivo, ip; one injection i.p., rats; dose causing 50 percent lethality
Outline: (§1)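 Therapeutic index (LD50/ED50) was derived from tumour weight against controls at day-8 sacrifice, with ED50 the dose giving 50% tumour reduction. Rats (SPF Wistar) bore 5 × 10^6 hepatoma cells implanted intraperitoneally. A single i.p. injection followed on the day after implantation.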

[2] = test system: Hepatoma AH 130; experiment: in vivo; parameters: species or system SPF Wistar rats; settings: for T.I. (LD50/ED50): Hepatoma AH 130, rats, i.p.; for ED50: Rattus norvegicus, ip, 192 h, one injection i.p. day after implantation, dose causing 50 percent reduction of tumour size
Outline: as §1

[3] = test system: Ehrlich ascites tumour, ELD hyperdiploid (46 chromosomes); experiment: Ehrlich ascites tumour test (LD50, ED50, therapeutic index); assay type: in vivo, SPF NMRI mice; settings: additional compounds, result in words
From the text: The high activity against tumours is further illustrated in these experiments by comparisons with known antitumour agents used in the therapy. The therapeutic indexes (T.I.), i.e. the ratios LD50/ED50, are in all comparisons much more favourable with the compounds of the present invention.
LD50 is the dose that caused a 50 percent lethality of the animals, ED50 is the dose that caused a 50 percent reduction of tumour size.
(§2) The experimental design and the interpretation of the results have been in accordance with the standards set by the CCNSC (Cancer Chemotherapy Reports, January 1959 and December 1962), and by the DR&D (Cancer Chemotherapy Reports, September 1972, Vol. 3, No. 2).
(§3) The way of administration is by the intraperitoneal route (i.p.) in each case.
Ehrlich ascites tumour, ELD hyperdiploid (46 chromosomes)
Experimental animals: SPF NMRI mice.
Tumour implant: 2 × 10^6 tumour cells i.p.
(§4) Therapy: One injection i.p. on the day following implantation.
Termination: The animals are killed on the 8th day.
Evaluation: Weights of tumours of test animals compared with those of control animals.

[4] = test system: Walker carcinosarcoma 256; experiment: Walker carcinosarcoma 256 test; assay type: in vivo, Sprague Dawley rats; settings: for Lethality: died/used animals
From the text: as §2, §3
Walker carcinosarcoma 256
Experimental animals: Sprague Dawley rats.
Tumour implant: Tumour pieces with 2-4 mm diameter, subcutaneously.
Therapy: Daily injections i.p. for 5 days starting on the day following implantation.
Termination: The animals are killed on the 9th day.
Evaluation: Weights of tumours of test animals are compared with those of control animals. The differences, in per cent of weights of tumours of control animals, give per cent tumour inhibition.
The lethality is given as the number of animals which died in the experiment/the number of animals used in the experiments.

[5] = test system: Lymphatic leukemia L 1210; experiment: Lymphatic leukemia L 1210 test; assay type: in vivo, CDF1 (C3H×DBA/2)F1 mice; settings: for Effect %: survival time as percentage of control; for Weight change v: vs control up to the 5th day
From the text: as §2, §3
Lymphatic leukemia L 1210
Experimental animals: CDF1 (C3H×DBA/2)F1 mice.
Tumour implant: 10^5 tumour cells i.p.
as §4
Evaluation: a) The survival time of the test animals (t) expressed as the percentage of that of control animals (c).
b. Weight change in the test animals (T) compared with that of the control animals (c) up to the 5th day.
c. The mortality rate must not exceed 35% in the test animals on the 5th day of therapy.

Structure (SMILES)	LD50 [1]	T.I. (LD50/ED50) [2]	ED50 [2]	anti-tumor activity [3]	Tumour inhibition % ([4]; 5×125 mg/kg i.p.)	Lethality ([4]; 5×125 mg/kg i.p.)	further results
CC(Cl)CN(N=O)C(=O)O[C@H]1CC[C@@]2(C)C(=CC[C@@H]3[C@@H]2CC[C@]2(C)C(=O)CC[C@@H]32)C1 (stereo partly drawn) [dehydroepiandrosterone-3β-N-(2-chloropropyl)-N-nitroso carbamate]	> 1000 mg/kg	> 10	100 mg/kg	exhibit anti-tumor activity	–	–	–
CC(=O)O[C@H]1CC[C@H]2[C@@H]3CC=C4C[C@@H](OC(=O)N(CCCl)N=O)CC[C@]4(C)[C@H]3CC[C@]12C [androstenediol-17β-acetate-3β-N-(2-chloroethyl)-N-nitroso carbamate]	> 250 mg/kg	–	0.25 mg/kg	exhibit anti-tumor activity	59%	0/8	–
C[C@]12CC[C@@H]3c4ccc(OC(=O)c5ccccc5)cc4CC[C@H]3[C@@H]1CC[C@@H]2OC(=O)N(CCCl)N=O [estradiol-3-benzoate-17β-N-(2-chloroethyl)-N-nitroso carbamate]	> 1000 mg/kg	> 16	< 63 mg/kg	exhibit anti-tumor activity	73%	0/8	–
C[C@]12CCC(=O)C[C@@H]1CC[C@@H]1[C@@H]2CC[C@]2(C)[C@@H](OC(=O)N(CCCl)N=O)CC[C@@H]12 [dihydrotestosterone-17β-N-(2-chloroethyl)-N-nitroso carbamate]	> 1000 mg/kg	–	1 mg/kg	exhibit anti-tumor activity	–	–	Tumour inhibition % ([4]; 5×250 mg/kg i.p.): 51%; Lethality ([4]; 5×250 mg/kg i.p.): 0/8; Mortality ([5]; 1×125 mg/kg i.p.): 0/20; Effect % ([5]; 1×125 mg/kg i.p.): 135%; Weight change v ([5]; 1×125 mg/kg i.p.): -0.9 g
CC(=O)[C@H]1CC[C@H]2[C@@H]3CC=C4C[C@@H](OC(=O)N(CCCl)N=O)CC[C@]4(C)[C@H]3CC[C@]12C [pregnenolone-3β-N-(2-chloroethyl)-N-nitroso carbamate]	> 1000 mg/kg	> 526	1.9 mg/kg	exhibit anti-tumor activity	–	–	Tumour inhibition % ([4]; 5×500 mg/kg i.p.): 55%; Lethality ([4]; 5×500 mg/kg i.p.): 0/8; Mortality ([5]; 1×500 mg/kg i.p.): 0/20; Effect % ([5]; 1×500 mg/kg i.p.): 136%; Weight change v ([5]; 1×500 mg/kg i.p.): -0.8 g
C[C@]12CC[C@H]3[C@@H](CCC4=CC(=O)CC[C@@H]43)[C@@H]1CC[C@@H]2OC(=O)N(CCCl)N=O [19-nortestosterone-17β-N-(2-chloroethyl)-N-nitroso carbamate]	150 mg/kg	300	0.5 mg/kg	exhibit anti-tumor activity	–	–	Tumour inhibition % ([4]; 5×63 mg/kg i.p.): 65%; Lethality ([4]; 5×63 mg/kg i.p.): 1/8; Mortality ([5]; 1×31 mg/kg i.p.): 0/40; Effect % ([5]; 1×31 mg/kg i.p.): 142%; Weight change v ([5]; 1×31 mg/kg i.p.): -1.0 g
C[C@]12CC[C@@H]3c4ccc(OC(=O)N(CCCl)N=O)cc4CC[C@H]3[C@@H]1CCC2=O [estrone-3-N-(2-chloroethyl)-N-nitroso carbamate]	> 1000 mg/kg	> 2.000	0.5 mg/kg	exhibit anti-tumor activity	75%	0/8	effect on L 1210 ([5]; result in words, dose not given): show a significant effect
C[C@]12CC[C@H](OC(=O)N(CCCl)N=O)C[C@@H]1CC[C@@H]1[C@@H]2CC[C@]2(C)C(=O)CC[C@@H]12 [epiandrosterone-3β-N-(2-chloroethyl)-N-nitroso carbamate]	> 1000 mg/kg	> 5.000	0.2 mg/kg	exhibit anti-tumor activity	47%	0/8	Mortality ([5]; 1×250 mg/kg i.p.): 0/20; Effect % ([5]; 1×250 mg/kg i.p.): 130%; Weight change v ([5]; 1×250 mg/kg i.p.): -1.6 g
C[C@]12CC[C@@H]3c4ccc(OC(=O)N(CCCl)N=O)cc4CC[C@H]3[C@@H]1CC[C@@H]2O [17β-estradiol-3-N-(2-chloroethyl)-N-nitroso carbamate]	> 1000 mg/kg	> 4.000	< 0.25 mg/kg	exhibit anti-tumor activity	–	–	Tumour inhibition % ([4]; 5×31 mg/kg i.p.): 86%; Lethality ([4]; 5×31 mg/kg i.p.): 0/8
CC(=O)O[C@H]1CC[C@@]2(C)C(=CC[C@H]3[C@@H]4CC[C@H](OC(=O)N(CCCl)N=O)[C@@]4(C)CC[C@@H]32)C1 [androstenediol-3β-acetate-17β-N-(2-chloroethyl)-N-nitroso carbamate]	> 250 mg/kg	–	0.25 mg/kg	exhibit anti-tumor activity	41%	0/8	–
C[C@]12CC[C@H](OC(=O)N(CCBr)N=O)CC1=CC[C@@H]1[C@@H]2CC[C@]2(C)C(=O)CC[C@@H]12 [dehydroepiandrosterone-3β-N-(2-bromoethyl)-N-nitroso carbamate]	> 1000 mg/kg	> 14	70 mg/kg	exhibit anti-tumor activity	–	–	Tumour inhibition % ([4]; 5×250 mg/kg i.p.): 61%; Lethality ([4]; 5×250 mg/kg i.p.): 0/8
COc1ccc2c(c1)CC[C@@H]1[C@@H]2CC[C@]2(C)[C@@H](OC(=O)N(CCCl)N=O)CC[C@@H]12 [estradiol-3-methylether-17β-N-(2-chloroethyl)-N-nitroso carbamate]	> 1000 mg/kg	> 2.000	0.5 mg/kg	exhibit anti-tumor activity	–	–	Tumour inhibition % ([4]; 5×250 mg/kg i.p.): 66%; Lethality ([4]; 5×250 mg/kg i.p.): 0/8
CCN(N=O)C(=O)O[C@H]1CC[C@@]2(C)C(=CC[C@@H]3[C@@H]2CC[C@]2(C)C(=O)CC[C@@H]32)C1 [dehydroepiandrosterone-3β-N-ethyl-N-nitroso carbamate, reference compound]	–	–	–	–	–	–	anti-tumor activity ([2]; doses 1 × 250, 1 × 500 and 1 × 1000 mg/kg respectively): inactive; Tumour inhibition % ([4]; 5×500 mg/kg i.p.): 0%; Lethality ([4]; 5×500 mg/kg i.p.): 1/8; effect on L 1210 ([5]; dose of 1000 mg/kg, comparative compounds): without effect
CC(C)CCC[C@@H](C)[C@H]1CC[C@H]2[C@@H]3CC=C4C[C@@H](OC(=O)N(CCCl)N=O)CC[C@]4(C)[C@H]3CC[C@]12C [cholesterol-3β-N-(2-chloroethyl)-N-nitroso carbamate]	> 1000 mg/kg	> 5	200 mg/kg	exhibit anti-tumor activity	–	–	Tumour inhibition % ([4]; 5×500 mg/kg i.p.): 39%; Lethality ([4]; 5×500 mg/kg i.p.): 0/8
C[C@]12CC[C@H](OC(=O)N(CCCCl)N=O)CC1=CC[C@@H]1[C@@H]2CC[C@]2(C)C(=O)CC[C@@H]12 [dehydroepiandrosterone-3β-N-(3-chloropropyl)-N-nitroso carbamate]	> 1000 mg/kg	> 2.7	375 mg/kg	exhibit anti-tumor activity	–	–	Tumour inhibition % ([4]; 5×500 mg/kg i.p.): 24%; Lethality ([4]; 5×500 mg/kg i.p.): 0/8
C[C@]12CC[C@H]3[C@@H](CC=C4C[C@@H](OC(=O)N(CCCl)N=O)CC[C@@]43C)[C@@H]1CC[C@@H]2OC(=O)N(CCCl)N=O [androstenediol-3β,17β-bis-/N-(2-chloroethyl)-N-nitroso carbamate/]	> 250 mg/kg	–	0.25 mg/kg	exhibit anti-tumor activity	–	–	–
CC(=O)O[C@H]1CC[C@H]2[C@@H]3CCc4cc(OC(=O)N(CCCl)N=O)ccc4[C@H]3CC[C@]12C [estradiol-17β-acetate-3-N-(2-chloroethyl)-N-nitroso carbamate]	> 1000 mg/kg	> 4.000	< 0.25 mg/kg	exhibit anti-tumor activity	69%	1/8	–

Reference: patent publication US3963707A, “Novel N-nitroso compounds, compositions containing such compounds, processes for their preparation and methods of treatment therewith, and novel intermediates” (Aktiebolaget Leo, priority 1973, dated 1976)
